# Columns and labels:
# [1] = test system: DEL-BVR (DEL brentuximab vedotin resistant line); experiment: In vitro cytotoxicity on MDR+ line, CellTiter-Glo, 96 h; assay type: cell-based; conditions: Table 6
# Method: (§1) In vitro potency was assessed on multiple cancer cell lines. All cell lines were authenticated by STR profiling at IDEXX Bioresearch and cultured for no more than 2 months after resuscitation. Cells cultured in log-phase growth were seeded for 24 hours in 96-well plates containing 150 μl RPMI 1640 supplemented with 20% FBS. Serial dilutions of antibody-drug conjugates in cell culture media were prepared at 4× working concentrations, and 50 μl of each dilution was added to the 96-well plates. Following addition of test articles, cells were incubated with test articles for 4 days at 37° C. After 96 hours, growth inhibition was assessed by CellTiter-Glo® (Promega, Madison, WI) and luminescence was measured on a plate reader. The EC50 value, determined in triplicate, is defined here as the concentration that results in 50% reduction in cell growth relative to untreated controls.
# (§2) In the following Tables IC50 values for ADCs and CPT free drugs are given in ng/mL and […] concentrations, respectively, with parenthetic values representing percent cells remaining at the highest concentration tested (1000 ng/mL for ADCs and 1 μM for CPT free compound, unless otherwise indicated) relative to untreated cells. Cell viability was determined by CellTiter-Glo staining after 96 h exposure to ADC. ND=Not Determined. […]
# DEL = experiment: In vitro cytotoxicity, CellTiter-Glo, 96 h; assay type: cell-based; conditions: Table 6
# Method: as §1, §2
# [2] = 1000 ng/mL, relative to untreated cells
substance,measurement,setting,value
"Ag2-vcMMAE (8): vcMMAE conjugate on Ag2; ""Ag2 refers to cAC10, which targets the CD30 antigen""","percent cells remaining at the highest dose tested, DEL/BVR",[1]; [2],93%
same,IC50 DEL/BVR,"[1]; Ag2(+), MDR(+) DEL-BVR, 96 h",>1 µg/mL
same,"percent cells remaining at the highest dose tested, DEL",DEL; [2],1%
same,IC50 DEL,"DEL; Ag2(+) parental DEL, 96 h",0.0005 µg/mL

# Reference: patent US20250073348A1, “CAMPTOTHECIN CONJUGATES” (priority 2018, published 2025)
